Data on 16 compounds can be found in publication PMC7470070, “Discovery of N-(1-(3-fluorobenzoyl)-1H-indol-5-yl)pyrazine-2-carboxamide: a novel, selective, and competitive indole-based lead inhibitor for human monoamine oxidase B” (Journal of Enzyme Inhibition and Medicinal Chemistry, 2020).

Entries after “also recorded” stand apart in the source; their conditions may differ. Like-named read-outs stand apart in the source and are kept apart here. Where only a bound is given, the exact number is not on record here.

The target of data set [1] is T1, Human recombinant MAO-B (hMAO-B) (Homo sapiens, UniProt P27338).
T1 construct: purchased Sigma-Aldrich (St. Louis, MO); host or cells: insect cells
T1 sequence (P27338 1-520): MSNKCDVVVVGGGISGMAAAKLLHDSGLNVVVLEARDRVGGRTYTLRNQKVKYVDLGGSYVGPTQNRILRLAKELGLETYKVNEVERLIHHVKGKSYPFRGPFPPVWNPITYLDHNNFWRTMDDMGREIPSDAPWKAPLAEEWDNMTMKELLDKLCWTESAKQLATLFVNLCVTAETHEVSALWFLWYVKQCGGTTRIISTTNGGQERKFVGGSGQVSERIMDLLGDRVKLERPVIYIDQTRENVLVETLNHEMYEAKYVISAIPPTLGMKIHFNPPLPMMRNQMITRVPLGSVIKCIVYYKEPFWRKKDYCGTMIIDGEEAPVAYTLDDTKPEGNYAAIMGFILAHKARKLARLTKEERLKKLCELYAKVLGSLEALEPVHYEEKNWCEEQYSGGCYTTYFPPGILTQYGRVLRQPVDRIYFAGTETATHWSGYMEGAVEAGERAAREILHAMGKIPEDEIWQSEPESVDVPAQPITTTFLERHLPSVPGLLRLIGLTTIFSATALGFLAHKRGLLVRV
Briefly: Monoamine oxidase enzyme assay (Amplex Red), MAO-B. It counts as biochemical. As to conditions: for IC50: as given in abstract; for inhibition at 10 µM: read-out: Inhibition percent of MAO-B; for SI (selectivity index), IC50 (MAO-A)/IC50 (MAO-B): selectivity for the MAO-B isoform. The protocol: (§1) The inhibitory activity of MAO-A, B enzyme of the compounds was evaluated based on previously described method. The MAO activity was measured in relative fluorescence units (RFUs) evoked by peroxidase-catalyzed oxidation of Amplex Red® to resorufin, in which H2O2 generated by MAO reaction was used as the electron donor. Human recombinant MAO-A (hMAO-A) and MAO-B (hMAO-B) enzyme expressed in insect cells were obtained from Sigma-Aldrich (St. Louis, MO). The 2 μL of test compound in DMSO (final concentration: 1 nM to 10 μM) was treated with 98 μL of hMAO enzyme solution in 50 mM sodium phosphate buffer (pH 7.4, final protein amounts: ∼1.25 μg protein/well for MAO-A and ∼2.5 μg protein/well for MAO-B) on 96-well black plate and incubated for 15 min at 37 °C. Then, 100 μL of reaction working solution which is mixed solution of 400 μM Amplex Red® (Cayman, Ann Arbor, MI, final concentration: 200 μM), 2 U/mL horseradish peroxidase (Sigma-Aldrich, St. Louis, MO, final concentration: 1 U/mL) and 2 mM substrate (p-tyramine for MAO-A, benzylamine for MAO-B, Sigma-Aldrich, St. Louis, MO, final concentration: 1 mM) in 50 mM sodium phosphate buffer (pH 7.4) were added and incubated for 20 min at 37 °C in the dark. The fluorescent intensity was quantified using a microplate reader (SpectraMax®i3, Molecular Devices, Sunnyvale, CA) with an excitation at 545 nm and an emission at 590 nm. The 50% inhibitory concentrations (IC50) of compounds were determined as the mean ± SEM in triplicate from the dose–response inhibition curves using SigmaPlot® 13.0 (Palo Alto, CA).
The target compounds 4a−l were biologically evaluated for their potential inhibitory activities over human MAO-B recombinant enzyme. The enzyme inhibition assay of the tested compounds was conducted using Amplex® Red reagent technology which offers quantitative enzyme activity sensitive detection with extended dynamic range compared to classic colorimetric oxidase assays in addition to its advantage of the fluorescence emission outside the range of compound autofluorescence (if any). Since Amplex® Red reagent is a colourless substrate able to react with H2O2 with a 1:1 stoichiometry to yield highly fluorescent resorufin, the elicited inhibitory activities of the tested compounds over MAO-B were evaluated via spectrophotometrical measurement and the fluorescence rate of the resorufin dye formation was detected. As mentioned previously, all the target compounds were designed to incorporate the same amide moiety in VI and VII at position 5 of the indole scaffold connecting one of three different heteroaromatic cycles with the indole core which is substituted with either aromatic or aliphatic moiety. […] In addition, we noticed that the benzyl and benzoyl moieties, bearing the electron-withdrawing 3- or 4-fluoro groups in 4a−f, exerted better inhibition than the pyridylmethyl substituent (4g−i). […] It is also noteworthy to mention that the three different heteroaryl cycles incorporated in our design (pyridazine, pyrazine, and pyridine) were represented in each of the last three compounds.
The inhibitory potencies (IC50 values) of compounds producing inhibition of MAO-B activity by more than 50% were determined using five doses assay with 10, 1, 0.1, 0.01, and 0.001 μM concentrations of the tested compounds. Consequently, analogues 4b and 4e were further evaluated to determine their IC50 over MAO-B in triplicate from the dose response inhibition curves using Sigma-Plot software version 13.0 as indicated in Figure 3.

The target of data set [2] is T2, Human recombinant MAO-A (hMAO-A) (Homo sapiens, UniProt P21397).
T2 construct: purchased Sigma-Aldrich (St. Louis, MO); host or cells: insect cells
T2 sequence (P21397 1-527): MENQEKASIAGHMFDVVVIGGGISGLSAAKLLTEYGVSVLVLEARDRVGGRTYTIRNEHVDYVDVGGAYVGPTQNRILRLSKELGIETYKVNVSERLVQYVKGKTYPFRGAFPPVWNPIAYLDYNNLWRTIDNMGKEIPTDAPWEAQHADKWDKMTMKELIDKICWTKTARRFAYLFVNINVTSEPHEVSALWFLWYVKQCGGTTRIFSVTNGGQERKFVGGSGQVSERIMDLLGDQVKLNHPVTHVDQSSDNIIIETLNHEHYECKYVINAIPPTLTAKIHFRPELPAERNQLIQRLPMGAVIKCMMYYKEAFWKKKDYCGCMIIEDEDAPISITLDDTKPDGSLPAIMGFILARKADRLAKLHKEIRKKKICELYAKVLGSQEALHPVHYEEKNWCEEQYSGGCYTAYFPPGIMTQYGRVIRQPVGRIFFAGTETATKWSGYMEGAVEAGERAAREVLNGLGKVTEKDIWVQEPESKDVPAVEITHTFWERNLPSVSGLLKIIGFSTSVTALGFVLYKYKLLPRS
Briefly: Monoamine oxidase enzyme assay (Amplex Red), MAO-A selectivity assay. It counts as biochemical. As to conditions: for inhibition at 100 µM: single dose of 100 µM of compound. As to the method: as §1
It is known that non-selective (MAO-A/B combined) inhibitors lead to several problems when taken concomitantly with tyramine-containing foods (such as cheese) since the drug's inhibition of MAO-A causes a dangerous elevation of serum tyramine levels, which can cause hypertensive symptoms. […] To calculate the selectivity index (SI: the selectivity for the MAO-B isoform given as the ratio of IC50 (MAO-A)/IC50 (MAO-B)), IC50 values of both compounds have been identified and found to be more than 100 µM. Consequently, the selectivity indices were calculated as illustrated in Table 2.

A further data set relates to human MAO-B. Further details: method as in PMID 24955776. The conditions noted are these: cited from earlier work.
For a further data set, the system named is MAO-A. Further details: method as in PMID 24955776. As to conditions: cited from earlier work.
The target of another data set is T3, hMAO-B enzyme (Homo sapiens, UniProt P27338).
T3 construct: purchased Sigma-Aldrich (St. Louis, MO); host or cells: insect cells
T3 sequence (P27338 1-520): T1 sequence (P27338 1-520)
Briefly: Kinetic study of MAO-B inhibition mode (Michaelis-Menten, Lineweaver-Burk). Type of data set: biochemical. As to the method: The type of MAO-B inhibition of compound 4e was determined by the Michaelis–Menten kinetic study. The catalytic rates of hMAO-B enzyme in the absence or in the presence of three different concentrations (10, 30, and 100 nM) of compound 4e were measured at seven different concentrations of the benzylamine (0.065, 0.125, 0.25, 0.5, 1, 2, and 4 mM). The corresponding progression curves and the Lineweaver–Burk plots were generated using GraphPad Prism 7 (La Jolla, CA). The maximal velocity (Vmax), the Michaelis constant (Km), and the inhibition constant (Ki) were calculated using SigmaPlot® 13.0 (Palo Alto, CA).
Detailed substrate-dependent kinetic experiments were carried out to examine the mode of MAO-B inhibition of compound 4e. The initial rates of MAO-B inhibition in the absence and presence of 4e were measured at various concentrations of benzylamine, a selective substrate for MAO-B, and both Michaelis–Menten and the Lineweaver–Burk plots are depicted in Figure 4. The Lineweaver–Burk plots for three different concentration of 4e were linear and intersected at the y-axis.

Where [3] appears, read: single dose of 10 µM of compound.

On to `O=C(Nc1ccc2c(ccn2Cc2ccc(F)cc2)c1)c1cnccn1` [4b, N-(1-(4-fluorobenzyl)-1H-indol-5-yl)pyrazine-2-carboxamide], for which, in data set [1], the IC50 was 1650 nM; the inhibition at 10 µM was found to be 88.49 ± 0.13%; the “SI (selectivity index), IC50 (MAO-A)/IC50 (MAO-B)” value is listed as above 60. Moreover, in data set [2], the IC50 is above 100000 nM and the inhibition at 100 µM came out at 12.9 ± 1.09%.

With `O=C(Nc1ccc2[nH]ncc2c1)c1c(F)cccc1Cl` [VII], the results for the IC50 with human MAO-B and with MAO-A were 3300 nM and above 10000 nM, respectively.

For `O=C(Nc1ccc2c(ccn2Cc2ccc(F)cc2)c1)c1ccnnc1` [4a, N-(1-(4-fluorobenzyl)-1H-indol-5-yl)pyridazine-4-carboxamide], the melting point was in the range of 212.6 to 213.1 °C. Besides, the inhibition at 10 µM in data set [1] (setting [3]) stood at 13.2 ± 3.32%.

As to `O=C(Nc1ccc2[nH]ncc2c1)c1cccc(Cl)c1Cl` [VI], the IC50 in the data set on human MAO-B was 2590 nM; in the data set on MAO-A it was above 10000 nM.

As for `Cn1ccc2cc(NC(=O)c3ccnnc3)ccc21` [4j, N-(1-methyl-1H-indol-5-yl)pyridazine-4-carboxamide], the melting point lay within 181.1 to 182 °C. For the same compound, the inhibition at 10 µM in data set [1] (setting [3]) is 9.52 ± 0.61%.

`O=C(Nc1ccc2c(ccn2Cc2ccccn2)c1)c1cnccn1` [4h, N-(1-(pyridin-2-ylmethyl)-1H-indol-5-yl)pyrazine-2-carboxamide] returned a melting point of 152 to 152.9 °C. Also, the inhibition at 10 µM in data set [1] (setting [3]) came to 2.38 ± 0.66%.

`O=C(Nc1ccc2c(ccn2Cc2ccccn2)c1)c1ccnnc1` [4g, N-(1-(pyridin-2-ylmethyl)-1H-indol-5-yl)pyridazine-4-carboxamide] came in with a melting point of 141.8 to 143 °C. Also, the inhibition at 10 µM in data set [1] (setting [3]) came out at 1.83 ± 0.75%.

`Cn1ccc2cc(NC(=O)c3cnccn3)ccc21` [4k, N-(1-methyl-1H-indol-5-yl)pyrazine-2-carboxamide] came in with a melting point of 172.5 to 174 °C. The inhibition at 10 µM in data set [1] (setting [3]) was determined as 49.7 ± 0.68%.

Consider `C#CCN[C@@H]1CCc2ccccc21` [rasagiline], for which the “SI (selectivity index) for MAO-B” value in the data set on human MAO-B (calculated SI) is on record as above 50.

With `Cn1cc(C(=O)Nc2ccc3[nH]ncc3c2)ccc1=O` [V], in the data set with human MAO-B, the “Activity over human MAO-B (in words)” value was “totally inactive” and the IC50 was above 10000 nM. Moreover, the IC50 in the data set on MAO-A is above 10000 nM.

Compound `O=C(Nc1ccc2c(ccn2C(=O)c2cccc(F)c2)c1)c1ccnnc1` [4d, N-(1-(3-fluorobenzoyl)-1H-indol-5-yl)pyridazine-4-carboxamide] returned a melting point of 196.7 to 196.9 °C. In data set [1] (setting [3]), the inhibition at 10 µM turned out to be 19.1 ± 0.47%.

Turning to `O=C(Nc1ccc2c(ccn2Cc2ccccn2)c1)c1cccnc1` [4i, N-(1-(pyridin-2-ylmethyl)-1H-indol-5-yl)nicotinamide], the melting point was 142.9 to 144.3 °C. Also, the inhibition at 10 µM in data set [1] (setting [3]) worked out at 1.81 ± 0.85%.

`O=C(Nc1ccc2c(ccn2C(=O)c2cccc(F)c2)c1)c1cccnc1` [4f, N-(1-(3-fluorobenzoyl)-1H-indol-5-yl)nicotinamide] came in with a melting point of 212.9 to 214.2 °C. In data set [1] (setting [3]), the inhibition at 10 µM stood at 30.29 ± 0.24%.

As to `O=C(Nc1ccc2c(ccn2Cc2ccc(F)cc2)c1)c1cccnc1` [4c, N-(1-(4-fluorobenzyl)-1H-indol-5-yl)nicotinamide], the melting point lay in the range of 200 to 200.4 °C. Further, the inhibition at 10 µM in data set [1] (setting [3]) came out at 11.2 ± 0.24%.

Regarding `O=C(Nc1ccc2c(ccn2C(=O)c2cccc(F)c2)c1)c1cnccn1` [4e, N-(1-(3-fluorobenzoyl)-1H-indol-5-yl)pyrazine-2-carboxamide], the melting point is 221.3 to 222.2 °C. Besides, in data set [1], the IC50 amounted to 780 nM and the “SI (selectivity index), IC50 (MAO-A)/IC50 (MAO-B)” value is above 120. In data set [1] (setting [3]), the inhibition at 10 µM worked out at 66.4 ± 0.79%. In addition, at hMAO-B enzyme (Lineweaver-Burk plots intersected at the y-axis), the “Mode of MAO-B inhibition” value is recorded as “competitive; also recorded: reversible”. In addition, the Ki on hMAO-B enzyme (substrate benzylamine, 10, 30, 100 nM of 4e, read-out: Inhibition constant (Ki) MAO-B) was determined as 94.5 nM. Moreover, in data set [2], the IC50 is above 100000 nM and the inhibition at 100 µM amounted to 4.76 ± 0.59%.

On to `Cn1ccc2cc(NC(=O)c3cccnc3)ccc21` [4l, N-(1-methyl-1H-indol-5-yl)nicotinamide], for which the melting point fell in the range of 164.2 to 164.9 °C. The inhibition at 10 µM in data set [1] (setting [3]) was 11.6%.
